Source: patent US20090186853A1, “COMPOSITIONS COMPRISING N-PROPANOYL DERIVATIVES OF AMINO ACIDS, AMINOCARBOHYDRATES AND DERIVATIVES THEREOF” (priority 2005, published 2009)

How the values were obtained:
[1] = system: itchy lesion due to atopic eczema; assay: Topical treatment of itch from atopic eczema in a human subject; format: in vivo; details: 5% cream
Protocol: For subjective disorders such as pain, itch, or the like, the therapeutic effects were evaluated or judged by the subjects or patients. For example, the subjects evaluated whether the pain or itch had disappeared within hours or days. For other detectable symptoms or syndromes, the therapeutic effects or improvements were evaluated or judged by medical professionals. N-Propanoyl-D-glucosamine 5 g was dissolved in water 15 ml and propylene glycol 5 ml, and the solution thus obtained was mixed uniformly with hydrophilic ointment or oil-in-water emulsion 75 g. The cream thus formulated had pH 4.7 and contained 5% N-propanoyl-D-glucosamine. A subject, having an itchy lesion on their right foot due to atopic eczema, topically applied the above cream to the lesion. […] A human subject having itchy skin from atopic eczema topically applied 5% N-propanoyl-glucosamine cream to the lesion.

[2] = system: fine wrinkles (crow's feet); assay: Topical treatment of fine wrinkles (crow's feet) near the eyes; format: in vivo, human; details: 5% cream of Example 7, topical twice daily, five weeks, person
Protocol: For subjective disorders such as pain, itch, or the like, the therapeutic effects were evaluated or judged by the subjects or patients. For example, the subjects evaluated whether the pain or itch had disappeared within hours or days. For other detectable symptoms or syndromes, the therapeutic effects or improvements were evaluated or judged by medical professionals. A subject, applied topically twice daily 5% N-propanoyl-D-glucosamine cream as formulated in Example 7 to fine wrinkles (crow's feet) near the eyes for five weeks.

[3] = system: forearm skin (aging / photoaging skin); assay: Forearm skin thickness measured by micrometer calipers after topical application; format: in vivo, human; details: 10% solution twice daily; for appearance of treated forearm skin compared with untreated forearm: at end of treatment (6 to 9 weeks)
Protocol: Skin thickness was measured by micrometer calipers to study skin changes associated with aging as follows: The skin was grasped with a 2×6 cm metal hinge, the internal faces of that were coated with emery cloth to prevent slippage, and manually squeezed to threshold subject discomfort. Combined thickness of two whole-skin layers including thickness of the two hinge leaves was measured with micrometer calipers. Thickness of the two hinge leaves was subtracted to determine the actual thickness of two whole-skin layers. Triplicate measurements on treated sites were done and an average number was used for calculation of the skin thickness. N-Propanoyl-D-glucosamine 10 g was dissolved in 90 ml solution prepared from water 40 parts, ethanol 40 parts and propylene glycol 20 parts by volume. The formulation thus prepared had pH 6.0 and contained 10% N-propanoyl-D-glucosamine solution.

SMILES: CCC(=O)N[C@H]1C(O)O[C@H](CO)[C@@H](O)[C@@H]1O (stereo partly drawn) [N-propanoyl-D-glucosamine, N-Propanoyl-D-glucosamine]
- time skin remained free of itch ([1]; single topical application to atopic eczema lesion): 12 h
- itch after topical application ([1]; topical to atopic eczema lesion, a few minutes after application): the itch disappeared completely
- change of wrinkles [2]: wrinkles improved significantly
- appearance of treated forearm skin compared with untreated forearm [3]: firmer, smooth, plump and minimally wrinkled when lifted
- appearance of treated forearm skin compared with untreated forearm ([3]; listed as N-propanoyl-glucosamine): firmer, smooth, plump, minimally wrinkled when lifted
- increase in skin thickness ([3]; left forearm, person, after 4 weeks): 8%
- increase in skin thickness ([3]; left forearm, person, after 5 weeks): 19%
- increase in skin thickness ([3]; left forearm, person, after 6 weeks): 23%
- increase in skin thickness ([3]; left forearm, person, after 8 weeks): 33%
- increase in skin thickness ([3]; left forearm, person, after 9 weeks): 28%
- increase in skin thickness ([3]; left forearm, subject with photoaging skin, 8 weeks): 33%
- increase in skin thickness ([3]; right forearm, person, after 4 weeks): 13%
- increase in skin thickness ([3]; right forearm, person, after 6 weeks): 27%
